The results in this text go back to patent US20050123917A1, “Method for characterising and/or identifying active mechanisms of antimicrobial test substances” (priority 2001, published 2005).

≈ marks a conversion by molar mass, not a printed value. Like-named read-outs stand apart in the source and are kept apart here. Starred links: 1 amine or outer side, 2 acyl side, 3 side chain; linkers in the order of their positions; H or OH if unused. Positions of bridges follow the written chain, without caps; N, C: chain ends. Non-standard residues stand in square brackets, D forms with d. Residues, ends and D or L forms follow the SMILES beside them. Chains are numbered I, II in the order given. Actinocin(9to1) = Cc1c2oc3c(C)ccc(C(=O)[*:1])c3nc-2c(C(=O)[*:2])c(N)c1=O; NMeV = CN[C@H](C(=O)O)C(C)C; Orn = NCCC[C@H](N)C(=O)O; Sar = CNCC(=O)O

For the test, the system named is Bacillus subtilis 168. The experiment in a line: Determination of the minimum inhibiting agent concentration (MIC). Format: cell-based. How it is done: The test substance may be an inhibiting agent. The concentration of inhibiting agent with which the bacterial culture is treated should preferably be in the range of 0.1× to 20× the minimum inhibiting agent concentration (MIC) for the test substance. The minimum inhibiting agent concentration is the minimum concentration of an antibiotic which inhibits the growth of a test germ over a period of 18-24 hours. The inhibiting agent concentration can therefore be determined according to standard microbiological procedures (see for example The-National Committee for Clinical Laboratory Standards. Methods for dilution antimicrobial susceptibility tests for bacteria that grow aerobically; approved standard-fifth edition. NCCLS document M7-A5 [ISBN 1-56238-394-9]. NCCLS, 940 West Valley Road, Suite 1400, Wayne, Pa. 19087-1898 USA, 2000.). The test spectra are recorded from a microbial culture that has been treated with the inhibiting agent in one, or preferably in several concentrations.
For the production of an overnight culture, 22 ml of Belitsky Minimal Medium (Stuhlke et al. (1993) Temporal activation of beta-glucauase synthesis in Bacillus subtilis is mediated by the GTP pool. J. Gen. Microbiol. 1993 Sep; 139 (pt 9):2041-5) was injected with an aliquot of the test germ Bacillus subtilis 168 from a permanent culture stored at −80° C., and incubated at 37° C. and 200 rpm.

Where [1] appears, read: B. subtilis 168, Belitsky Minimal Medium, 18-24 hrs at 37° C.
The mark [2] stands for this setting: Bacillus subtilis, B. subtilis 168, Belitsky Minimal Medium, 18-24 hrs at 37° C., read-out: MIC.

Take `CN(C)[C@@H]1C(=O)C(C(N)=O)=C(O)[C@@]2(O)C(=O)C3=C(O)c4c(O)cccc4[C@@](C)(O)[C@H]3C[C@@H]12` [tetracyclin]: under setting [1], the MIC amounted to 16 µg/mL (≈ 36 µM). Consider `CO[C@@H]1[C@@H](OC(N)=O)[C@@H](O)[C@H](Oc2ccc3c(O)c(NC(=O)c4ccc(O)c(CC=C(C)C)c4)c(=O)oc3c2C)OC1(C)C` [novobiocin], for which the MIC under setting [2] is 2 µg/mL (≈ 3.26 µM).

Consider `COc1cc(Cc2cnc(N)nc2N)cc(OC)c1OC` [trimethoprim], for which, under setting [2], the MIC turned out to be 0.5 µg/mL (≈ 1.72 µM). `O=c1[nH]cc(F)c(=O)[nH]1` [5-fluoro-uracile]: the MIC under setting [2] was 0.25 µg/mL (≈ 1.92 µM). Turning to `O=C1CN(/N=C/c2ccc([N+](=O)[O-])o2)C(=O)N1` [nitrofurantoin], the MIC under setting [2] amounted to 16 µg/mL (≈ 67.2 µM). The same measure, in the same setting: next, `CO[C@@H]1C[C@@H](C[C@H]2CC[C@H](C)[C@H]([C@@H](C)C(=O)O)O2)O[C@]2(O[C@](C)([C@H]3CC[C@@](C)([C@@H]4O[C@@H]([C@H]5O[C@@](O)(CO)[C@H](C)C[C@@H]5C)C[C@@H]4C)O3)C[C@H]2C)[C@@H]1C` [nigericin]: 1 µg/mL (≈ 1.38 µM).

Turning to `CC[C@@]1([C@@H]2O[C@@H]([C@H]3O[C@@](O)(CO)[C@H](C)C[C@@H]3C)C[C@@H]2C)CC[C@H]([C@]2(C)CC[C@]3(C[C@H](O)[C@@H](C)[C@@H]([C@@H](C)[C@@H](OC)[C@H](C)C(=O)O)O3)O2)O1` [monensin], the MIC under setting [2] is 4 µg/mL (≈ 5.96 µM). For the molecule gramicidin A, the MIC under setting [1] was 4 µg/mL. Molecule `CO[C@@]12[C@H](COC(N)=O)C3=C(C(=O)C(C)=C(N)C3=O)N1C[C@@H]1N[C@@H]12` [mitomycin C] registered an MIC under setting [1] of 0.25 µg/mL (≈ 0.748 µM). On the same count and under the same terms, next, gentamicin: 0.125 µg/mL; enniatin: 16 µg/mL. For the molecule `CN[C@H](CC(C)C)C(=O)N[C@H]1C(=O)N[C@@H](CC(N)=O)C(=O)N[C@H]2C(=O)N[C@H]3C(=O)N[C@H](C(=O)N[C@H](C(=O)O)c4cc(O)cc(O)c4-c4cc3ccc4O)[C@H](O)c3ccc(c(Cl)c3)Oc3cc2cc(c3O[C@@H]2O[C@H](CO)[C@@H](O)[C@H](O)[C@H]2O[C@H]2C[C@](C)(N)[C@H](O)[C@H](C)O2)Oc2ccc(cc2Cl)[C@H]1O` [vancomycin], it took 0.25 µg/mL (≈ 0.173 µM) to inhibit growth (Bacillus subtilis, 168) (MIC).

`[N-]=[N+]=CC(=O)OC[C@H](N)C(=O)O` [azaserine]: the MIC under setting [2] was determined as 4 µg/mL (≈ 23.1 µM). `CC1(C)S[C@@H]2[C@H](NC(=O)Cc3ccccc3)C(=O)N2[C@H]1C(=O)O` [penicillin G] came in with an MIC under setting [1] of 4 µg/mL (≈ 12 µM). `[H]/N=C(/N)N[C@H]1[C@H](O)[C@@H](O)[C@H](O[C@@H]2O[C@@H](C)[C@](O)(C=O)[C@H]2O[C@@H]2O[C@@H](CO)[C@H](O)[C@@H](O)[C@@H]2NC)[C@@H](N/C(N)=N\[H])[C@@H]1O` [streptomycin]: the MIC under setting [2] was found to be 128 µg/mL (≈ 220 µM). Still for that read-out and setting: next, `Cc1onc(-c2ccccc2)c1C(=O)N[C@@H]1C(=O)N2[C@@H]1SC(C)(C)[C@@H]2C(=O)O` [oxacillin]: 0.5 µg/mL (≈ 1.25 µM); `NC[C@H]1O[C@H](O[C@H]2[C@H](O)[C@@H](O[C@H]3O[C@H](CO)[C@@H](O)[C@H](N)[C@H]3O)[C@H](N)C[C@@H]2N)[C@H](O)[C@@H](O)[C@@H]1O` [kanamycin]: 0.5 µg/mL (≈ 1.03 µM); `CC[C@H]1OC(=O)[C@H](C)[C@@H](O[C@H]2C[C@@](C)(OC)[C@@H](O)[C@H](C)O2)[C@H](C)[C@@H](O[C@@H]2O[C@H](C)C[C@H](N(C)C)[C@H]2O)[C@](C)(O)C[C@@H](C)C(=O)[C@H](C)[C@@H](O)[C@]1(C)O` [erythromycin]: 0.5 µg/mL (≈ 0.681 µM). In the case of `Cc1c2oc3c(C)ccc(C(=O)N[C@@H]4C(=O)N[C@H](C(C)C)C(=O)N5CCC[C@H]5C(=O)N(C)CC(=O)N(C)[C@@H](C(C)C)C(=O)O[C@@H]4C)c3nc-2c(C(=O)N[C@@H]2C(=O)N[C@H](C(C)C)C(=O)N3CCC[C@H]3C(=O)N(C)CC(=O)N(C)[C@@H](C(C)C)C(=O)O[C@@H]2C)c(N)c1=O` [actinomycin D] (I: T[dV]P[Sar][NMeV] / II: T[dV]P[Sar][NMeV]; ester I:1-I:C, II:1-II:C; linker I:N-II:N via Actinocin(9to1)), the MIC under setting [1] came to 1 µg/mL (≈ 0.797 µM). ramoplanin gave an MIC under setting [1] of 1 µg/mL.

polymyxin B-sulfate: under setting [1], the MIC came out at 16 µg/mL. Still for that read-out and setting: then `O=c1[nH]c(=O)n([C@H]2C[C@H](O)[C@@H](CO)O2)cc1F` [5-fluor-2-desoxyuridine], with 0.25 µg/mL (≈ 1.02 µM). For the molecule `CCC[C@@H]1C[C@@H](C(=O)N[C@@H]([C@H]2O[C@H](SC)[C@H](O)[C@@H](O)[C@H]2O)[C@H](C)Cl)N(C)C1` [clindamycin], the MIC under setting [2] was found to be 2 µg/mL (≈ 4.71 µM). neomycin gave an MIC under setting [1] of 0.125 µg/mL. With `COc1ccc(C[C@H](N)C(=O)N[C@H]2[C@@H](O)[C@H](n3cnc4c(N(C)C)ncnc43)O[C@@H]2CO)cc1` [puromycin], under setting [2], the MIC came out at 8 µg/mL (≈ 17 µM). In the case of `CO[C@@]1(NC(=O)Cc2cccs2)C(=O)N2C(C(=O)O)=C(COC(N)=O)CS[C@@H]21` [cefoxitin], the MIC under setting [2] amounted to 2 µg/mL (≈ 4.68 µM). As for `CC(C)C[C@@H]1NC(=O)[C@H](CCCN)NC(=O)[C@H](C(C)C)NC(=O)[C@@H]2CCCN2C(=O)[C@@H](Cc2ccccc2)NC(=O)[C@H](CC(C)C)NC(=O)[C@H](CCCN)NC(=O)[C@H](C(C)C)NC(=O)[C@@H]2CCCN2C(=O)[C@@H](Cc2ccccc2)NC1=O` [gramicidin S] (cyclo(V[Orn]L[dF]PV[Orn]L[dF]P)), the MIC under setting [1] turned out to be 1 µg/mL (≈ 0.876 µM). Regarding `COc1cccc(OC)c1C(=O)N[C@@H]1C(=O)N2[C@@H]1SC(C)(C)[C@@H]2C(=O)O` [methicillin], the MIC under setting [2] was found to be 0.125 µg/mL (≈ 0.329 µM). Same read-out and setting: then `CO[C@H]1/C=C/O[C@@]2(C)Oc3c(C)c(O)c4c(O)c(c(/C=N/N5CCN(C)CC5)c(O)c4c3C2=O)NC(=O)/C(C)=C\C=C\[C@H](C)[C@H](O)[C@@H](C)[C@@H](O)[C@@H](C)[C@H](OC(C)=O)[C@@H]1C` [rifampicin], with 0.25 µg/mL (≈ 0.304 µM); and `CC(=O)O[C@H]1C[C@@]2(C)[C@@H](C[C@@H](O)[C@H]3[C@@]4(C)CC[C@@H](O)[C@@H](C)[C@@H]4CC[C@@]32C)/C1=C(\CCC=C(C)C)C(=O)O` [fusidic acid], with 0.5 µg/mL (≈ 0.968 µM); and `CC[C@H]1OC(=O)[C@H](C)[C@@H](O[C@H]2C[C@@](C)(OC)[C@@H](O)[C@H](C)O2)[C@H](C)[C@@H](O[C@@H]2O[C@H](C)C[C@H](N(C)C)[C@H]2O)[C@](C)(O)C[C@@H](C)CN(C)[C@H](C)[C@@H](O)[C@]1(C)O` [azithromycin], with 1 µg/mL (≈ 1.34 µM). In the case of `C/C=C/C/C=C/CCC(=O)[C@H]1O[C@H]1C(N)=O` [cerulenin], under setting [2], the MIC was determined as 16 µg/mL (≈ 71.7 µM). On to `CN[C@@H]1[C@H](O)[C@H](NC)[C@H]2O[C@@]3(O)C(=O)C[C@@H](C)O[C@H]3O[C@@H]2[C@H]1O` [spectinomycin], for which the MIC under setting [2] worked out at 16 µg/mL (≈ 48.1 µM). Take `CC[C@H]1OC(=O)[C@H](C)[C@@H](O[C@H]2C[C@@](C)(OC)[C@@H](O)[C@H](C)O2)[C@H](C)[C@@H](O[C@@H]2O[C@H](C)C[C@H](N(C)C)[C@H]2O)[C@](C)(OC)C[C@@H](C)C(=O)[C@H](C)[C@@H](O)[C@]1(C)O` [clarithromycin]: the MIC under setting [2] was 0.0625 µg/mL (≈ 0.0836 µM). Consider `CCn1cc(C(=O)O)c(=O)c2ccc(C)nc21` [nalidixic acid], for which the MIC under setting [2] amounted to 32 µg/mL (≈ 138 µM). `O=C(N[C@H](CO)[C@H](O)c1ccc([N+](=O)[O-])cc1)C(Cl)Cl` [chloramphenicol]: under setting [2], the MIC came to 4 µg/mL (≈ 12.4 µM). Molecule ristocetin displayed an MIC under setting [1] of 0.5 µg/mL. In turn, `CC[n+]1c(-c2ccccc2)c2cc(N)ccc2c2ccc(N)cc21.[Br-]` [ethidiumbromid] gave an MIC under setting [1] of 4 µg/mL. The same measure, in the same setting: next, `N[C@@H]1CONC1=O` [D-cycloserine]: 64 µg/mL (≈ 627 µM); mersacidin: 16 µg/mL. For the molecule `COc1cccc2c1C(=O)c1c(O)c3c(c(O)c1C2=O)C[C@@](O)(C(=O)CO)C[C@@H]3O[C@H]1C[C@H](N)[C@H](O)[C@H](C)O1` [doxorubicin], the MIC under setting [2] amounted to 8 µg/mL (≈ 14.7 µM).

`C/C(=C\C(=O)OCCCCCCCCC(=O)O)C[C@@H]1OC[C@H](C[C@@H]2O[C@H]2[C@@H](C)[C@H](C)O)[C@@H](O)[C@H]1O` [mupirocin]: the MIC under setting [2] stood at 0.0625 µg/mL (≈ 0.125 µM). Regarding `Nc1ccc2cc3ccc(N)cc3nc2c1` [proflavin], the MIC under setting [2] came out at 8 µg/mL (≈ 38.2 µM).

As to `NC[C@H]1O[C@H](O[C@H]2[C@H](O)[C@@H](O[C@H]3O[C@H](CO)[C@@H](O)[C@H](N)[C@H]3O)[C@H](N)C[C@@H]2N)[C@H](N)C[C@@H]1O` [tobramycin], the MIC under setting [2] is 0.0625 µg/mL (≈ 0.134 µM). Same read-out and setting: then `CO[C@@]1(NC(=O)C(C(=O)O)c2ccc(O)cc2)C(=O)N2C(C(=O)O)=C(CSc3nnnn3C)CO[C@@H]21` (some centres unmarked) [moxalactam], with 4 µg/mL (≈ 7.69 µM); and `CC[C@@H](C(=O)[C@@H](C)[C@@H](O)[C@H](C)CCc1ccc(C)c(O)c1C(=O)O)[C@H]1O[C@](CC)([C@H]2CC[C@](O)(CC)[C@H](C)O2)C[C@@H]1C` [lasalocid], with 1 µg/mL (≈ 1.69 µM). The molecule teichoplanin gave an MIC under setting [1] of 0.125 µg/mL.

The MIC is the lowest concentration found to suppress growth.
